Here are results for one molecule from patent US6353022B1, “Compositions containing hydroxyeicosatetraenoic acid derivatives and methods of use in treating dry eye disorders” (Alcon Universal Ltd., priority 1999, dated 2002).

The test system of this assay is corneal injury induced by dry eye conditions. The assay can be described thus: in vivo desiccation model of dry eye (methylene blue corneal staining, absorbance at 660 nm). The conditions noted are these: 15(S)-HETE 1 μM (0.000034% w/v), 50 μL topical O.D., 4-hour desiccation. Also noted: species or system rabbit. The procedure:
A composition of the present invention (Example 1, with the compound of formula (III) being 15(S)-HETE) was compared to an analogous composition without ethanol, an analogous composition without 15(S)-HETE, and analogous compositions with approximately one-half, one-tenth, and twice the amount of ethanol, respectively, in an in vivo desiccation model of dry eye.
Briefly, the assay was performed by first anesthetizing the animals with ketamine/xylazine/glycopyrrolate. The O.S. eye was lubricated with DuraTears® and remained taped shut throughout the experiment. The O.D. eye was then dosed with 50 μL of test composition (Example 1) or 50 μL of the same composition without ethanol and the eye taped shut for 10 minutes. The tape was then removed, the eyelids opened and a speculum was inserted into the eye. The eye was held open with the speculum for a period of 4 hours. During this time, the animals were monitored every 15 minutes and supplemental injections of ketamine/xylazine (at half the initial dose/injection) were administered as needed to maintain anesthesia. At the end of the 4-hour period, 2 sutures were placed in the upper eyelid and 1 suture was placed in the lower eyelid. A corneal/conjunctival cup was formed by using the sutures to lift the eyelids upward and the sutures taped to a stand. 1 mL methylene blue (1% solution in water) was added to the conjunctival cup and the cornea was stained with the solution for 5 minutes. The eye was then washed with 200 mL of a balanced salt solution. Corneal thickness was determined by non-invasive pachymetry. Three readings were taken for each animal. Corneal staining score was obtained by visualizing the cornea with a slit-lamp and determining the percentage of the cornea that was stained with methylene blue. A photograph was taken using the slit-lamp machine. The rabbit was then euthanized immediately by intravenous injection of Sleepaway® solution and the eye was excised. The cornea was isolated and an 8 mm punch of the central cornea collected. This corneal punch was placed in a small glass vial containing 2 mL acetone/saturated sodium sulfate (7:3, vol/vol). Absorbance of the extracted solution was measured at 660 nm with a spectrophotometer.
The naïve control animals were anesthetized with ketamine/xylazine/glycopyrrolate and the O.S. eye lubricated and taped shut. Sutures were immediately placed in the O.D. eyelids. The corneal cup was formed and the cornea was stained with methylene blue, washed with a balanced salt solution and collected, as described above. The data were converted to “percent protection” by subtracting from 1, the quotient of the test sample absorbances divided by the average of control sample absorbance, and multiplying by 100. The results are contained in Table 1 and illustrated in FIGS. 1 and 2: […]

Regarding `CCCCC[C@H](O)/C=C/C=C\C/C=C\C/C=C\CCCC(=O)O` [15(S)-HETE, 5,8,11,13-Eicosatetraenoic acid, 15-hydroxy-, [15S-(5Z,8Z,11Z,13E)]-], the “% Protection” value reads like this: (Ethanol 0.0 % (w/v)) 13%; (Ethanol 0.00505 % (w/v)) 2%; (Ethanol 0.0252 % (w/v), p < 0.05 versus control) 42%; (Ethanol 0.0505 % (w/v) (composition of Example 1), p < 0.05 versus control) 60%; (Ethanol 0.101 % (w/v)) 31%.
